# Measurements taken from paper PMC5897336, “Phosphatase activity tunes two-component system sensor detection threshold” (Nature Communications, 2018).
# System: ThsS
# Conditions: read-out: K1/2; whole E. coli cells, M9 glycerol, 37 °C, agonist, added as Na2S2O3, 200 μM IPTG, 20 ng/mL aTc; wild type taken as the upper end of the printed range
structure (smiles),measurement,value
O=S(=O)(O)S [thiosulfate],EC50,192 µM
